Measured values taken from patent US9446061B2, “Composition containing antibiotics and lysophosphatidylcholine for boosting immunity or treatment of bacterial infections” (priority 2011, dated 2016).

How the values were obtained:
[1] = tested on: CPA-CLP sepsis mouse model; test: Effects of LPC, LPC isomers, Xigris and DW286aa on mortalities/survivabilities in CPA-CLP sepsis mouse model (SEP009); single i.v. 6 hrs after CLP; format: in vivo
Description: (§1) CPA is well known as an immunosuppressive agent. […] Then, the abdomen was closed following the general procedure.
(§2) Then, body weight and mortality changes were observed.
In the Sham and CLP control groups, 10 ml/kg of only sterile physiological saline was single intravenously dosed.

[2] = tested on: CPA-CLP sepsis mouse model; test: Combination effects of LPC and antibiotics (colistin, tobramycin, fusidin) in CPA-CLP sepsis mouse model (SEP013); single i.v. 6 hrs after CLP; format: in vivo, ICR mice; details: mpk: LPC 5, DW286aa 5, Colistin 5, Tobra 4, Fusidin 80, LPC + Colistin 5 + 5, LPC + Tobra 5 + 4, LPC + Fusidin 5 + 80
Source text: as §1, §2

CPA-CLP mice = test: Mortality of CPA-CLP mice, LPC and DW286AA alone or combined (Example 9); s.c. 4 times 12-hr intervals from 6 hrs after CLP; format: in vivo, ICR mice; details: for Survival rate: LPC 1, DW286 0.5, Mix 0.75 mg/kg; for survival rates (survivors/total in brackets), Table 13: mg/kg: LPC 1, LPC + DW286 0.5 + 0.25, DW286/LPC 0.5/1.0, LPC/DW286 1.0/0.5, DW286 0.5
Source text: as §1

[3] = tested on: CPA-induced immunosuppressive mice; test: Thymus and spleen organ weights in CPA-treated mice; format: in vivo, ICR mice; details: LPC 1, DW286 0.5, Mix 0.75 mg/kg
Description: At sacrifice of CPA-treated model, the wet-weights of spleen and thymus were measured and regarded as absolute weight and then relative organ weight (% of body weight) was calculated as follow:
=[(Absolute organ weights/Body weight at sacrifice individual)×100]

blood WBC = test: Blood WBC numbers and differential counts in CPA-treated mice; format: in vivo, ICR mice; details: LPC 1, DW286 0.5, Mix 0.75 mg/kg
Description: Blood were collected at sacrifice of CPA-treated model from vena cava and total blood leukocyte numbers were calculated using counting chamber, diluting pipette and Türk solution as dilution solution. All numbers were calculated as ×10^3/mm^3. In addition, cell numbers of lymphocytes, eosinophils, neutrophils, monocytes and basophils were calculated among 100 total leukocytes in smear blood samples stained with Giemsa.

[4] = tested on: CPA-induced immunosuppressive mice; test: Histopathology/histomorphometry of thymus and spleen in CPA-treated mice; format: in vivo, ICR mice; details: LPC 1, DW286 0.5, Mix 0.75 mg/kg
Description: After measuring of organ weight, thymus and spleen was sampled. Sampled organs were fixed in 10% neutral buffered formalin. After paraffin embedding, 3-4 μm sections were prepared. Representative sections were stained with Hematoxylin and Eosin (H&E) for light microscopical examination. After that the histological profiles of individual organs were observed.
The numbers of white pulps in spleen were calculated as N/histological sections (×50) using automated image analysis (analySIS Image Processing; SIS, Germany). In addition, the numbers of atrophic changes on thymic cortex/total observed number of thymus were also calculated.

[5] = Body weight of CPA-CLP mice (Example 9); details: LPC 1, DW286 0.5, Mix 0.75 mg/kg
Description: (§3) In CPA-CLP model, body weight and mortalities were measured once a day for 5 days with automatic electronic balances (Sartorius Co., Ltd., USA), once a day for 2 days in CPA-treated model. All animals were overnight fasted at CPA dosing, CLP or initial dosing to reduce differences from feeding. In addition, body weight gains were calculated as follows:
CPA-CLP Model: Body weight at sacrifice—at CLP(5 days)
Then, mortalities, changes in thymus and spleen weights, changes in white blood cell (WBC) number, and changes in thymic and splenic CD3+, CD4+, CD8+, and TNF-α+ cell numbers, were evaluated together with changes in bone marrow polychromatic erythrocytes contain micronuclei (MNPCE) number.
(§4) Appropriate doses of candidate materials were dissolved in 5% human serum albumin, and subcutaneously dosed at 10 ml/kg (of body weight), 4 times 12-hr intervals from 6 hrs after CLP or 24 hrs after last CPA-dosing, respectively. In the INTACT, CPA, or CPA-CLP control groups, an equal volume of 5% human serum albumin was dosed by the same procedure.

[6] = Body weight of CPA-treated mice (Example 9); s.c. 4 times 12-hr intervals from 24 hrs after last CPA-dosing; details: LPC 1, DW286 0.5, Mix 0.75 mg/kg
Description: In the INTACT control group, an equal volume of physiological saline was dosed instead of CPA by the same method.
In Intact control animals, equal volume of saline was only dosed instead of CPA with same methods.
as §3
CPA-Treat Model: Body weight at sacrifice—at initial dosing (2 days)
To find suitable dosing regime of LPC and DW286AA combination during the development of new therapeutic agents against sepsis, evaluation was conducted by using CPA-CLP— and CPA-induced immunosuppressive mice. […] Then, mortalities, changes in thymus and spleen weights, changes in white blood cell (WBC) number, and changes in thymic and splenic CD3+, CD4+, CD8+, and TNF-α+ cell numbers, were evaluated together with changes in bone marrow polychromatic erythrocytes contain micronuclei (MNPCE) number.
as §4

[7] = LPC, LPC18:0, LPC18:1, LPA 5 mpk, Xigris 0.4 mpk, DW286aa 10 mpk, 1st CPA treat
[8] = LPC, LPC18:0, LPC18:1, LPA 5 mpk, Xigris 0.4 mpk, DW286aa 10 mpk, 2nd CPA treat
[9] = LPC, LPC18:0, LPC18:1, LPA 5 mpk, Xigris 0.4 mpk, DW286aa 10 mpk, At CLP (day 0)
[10] = LPC, LPC18:0, LPC18:1, LPA 5 mpk, Xigris 0.4 mpk, DW286aa 10 mpk, Day 1
[11] = LPC, LPC18:0, LPC18:1, LPA 5 mpk, Xigris 0.4 mpk, DW286aa 10 mpk, Day 2
[12] = LPC, LPC18:0, LPC18:1, LPA 5 mpk, Xigris 0.4 mpk, DW286aa 10 mpk, Day 3
[13] = LPC, LPC18:0, LPC18:1, LPA 5 mpk, Xigris 0.4 mpk, DW286aa 10 mpk, Day 4
[14] = LPC, LPC18:0, LPC18:1, LPA 5 mpk, Xigris 0.4 mpk, DW286aa 10 mpk, Day 5
[15] = LPC, LPC18:0, LPC18:1, LPA 5 mpk, Xigris 0.4 mpk, DW286aa 10 mpk, Day 6
[16] = LPC, LPC18:0, LPC18:1, LPA 5 mpk, Xigris 0.4 mpk, DW286aa 10 mpk, Day 7
[17] = LPC, LPC18:0, LPC18:1, LPA 5 mpk, Xigris 0.4 mpk, DW286aa 10 mpk, Day 8
[18] = LPC, LPC18:0, LPC18:1, LPA 5 mpk, Xigris 0.4 mpk, DW286aa 10 mpk, Day 9
[19] = LPC, LPC18:0, LPC18:1, LPA 5 mpk, Xigris 0.4 mpk, DW286aa 10 mpk, Day 10
[20] = LPC, LPC18:0, LPC18:1, LPA 5 mpk, Xigris 0.4 mpk, DW286aa 10 mpk, Total
[21] = Xigris 2 mpk, DW286aa 20 mpk, 1st CPA treat
[22] = Xigris 2 mpk, DW286aa 20 mpk, 2nd CPA treat
[23] = Xigris 2 mpk, DW286aa 20 mpk, At CLP (day 0)
[24] = Xigris 2 mpk, DW286aa 20 mpk, Day 1
[25] = Xigris 2 mpk, DW286aa 20 mpk, Day 2
[26] = Xigris 2 mpk, DW286aa 20 mpk, Day 3
[27] = Xigris 2 mpk, DW286aa 20 mpk, Day 4
[28] = Xigris 2 mpk, DW286aa 20 mpk, Day 5
[29] = Xigris 2 mpk, DW286aa 20 mpk, Day 6
[30] = Xigris 2 mpk, DW286aa 20 mpk, Day 7
[31] = Xigris 2 mpk, DW286aa 20 mpk, Day 8
[32] = Xigris 2 mpk, DW286aa 20 mpk, Day 9
[33] = Xigris 2 mpk, DW286aa 20 mpk, Day 10
[34] = Xigris 2 mpk, DW286aa 20 mpk, Total
[35] = At First CPA dosing (overnight fasted)

CON=C1CN(c2nc3c(cc2F)c(=O)c(C(=O)O)cn3C2CC2)CC1(C)CN.Cl (stereo not shown) [DW286aa, 7-[3-(aminomethyl)-4-(methoxyimino)-3-methyltetrahydro-1H-1-pyrrolyl]-1-cyclopropyl-6-fluoro-4-oxo-1,4-dihydro[1,8]naphthyridine-3-carboxylic acid hydrochloric acid salt]
Mortalities [1, 7]: 0 | survivabilities [1, 7]: 100% | Mortalities [1, 8]: 0 | survivabilities [1, 8]: 100% | Mortalities [1, 9]: 0 | survivabilities [1, 9]: 100% | Mortalities [1, 10]: 1 | survivabilities [1, 10]: 90% | Mortalities [1, 11]: 2 | survivabilities [1, 11]: 70% | Mortalities [1, 12]: 0 | survivabilities [1, 12]: 70% | Mortalities [1, 13]: 0 | survivabilities [1, 13]: 70% | Mortalities [1, 14]: 0 | survivabilities [1, 14]: 70% | Mortalities [1, 15]: 0 | survivabilities [1, 15]: 70% | Mortalities [1, 16]: 2 | survivabilities [1, 16]: 50% | Mortalities [1, 17]: 1 | survivabilities [1, 17]: 40% | Mortalities [1, 18]: 1 | survivabilities [1, 18]: 30% | Mortalities [1, 19]: 0 | survivabilities [1, 19]: 30% | Mortalities [1, 20]: 7 | survivabilities [1, 20]: 30% | Mortalities [1, 21]: 0 | survivabilities [1, 21]: 100% | Mortalities [1, 22]: 0 | survivabilities [1, 22]: 100% | Mortalities [1, 23]: 0 | survivabilities [1, 23]: 100% | Mortalities [1, 24]: 0 | survivabilities [1, 24]: 100% | Mortalities [1, 25]: 1 | survivabilities [1, 25]: 90% | Mortalities [1, 26]: 1 | survivabilities [1, 26]: 80% | Mortalities [1, 27]: 0 | survivabilities [1, 27]: 80% | Mortalities [1, 28]: 0 | survivabilities [1, 28]: 80% | Mortalities [1, 29]: 2 | survivabilities [1, 29]: 60% | Mortalities [1, 30]: 1 | survivabilities [1, 30]: 50% | Mortalities [1, 31]: 0 | survivabilities [1, 31]: 50% | Mortalities [1, 32]: 1 | survivabilities [1, 32]: 40% | Mortalities [1, 33]: 1 | survivabilities [1, 33]: 30% | Mortalities [1, 34]: 7 | survivabilities [1, 34]: 30% | Mortalities ([2]; 1st CPA treat): 0 | Survivalities ([2]; 1st CPA treat): 100% | Mortalities ([2]; 2nd CPA treat): 0 | Survivalities ([2]; 2nd CPA treat): 100% | Mortalities ([2]; At CLP (day 0)): 0 | Survivalities ([2]; At CLP (day 0)): 100% | Mortalities ([2]; Day 1): 0 | Survivalities ([2]; Day 1): 100% | Mortalities ([2]; Day 2): 0 | Survivalities ([2]; Day 2): 100% | Mortalities ([2]; Day 3): 2 | Survivalities ([2]; Day 3): 80% | Mortalities ([2]; Total): 2 | Survivalities ([2]; Total): 80% | Survival rate (CPA-CLP mice; 1 day after CLP): 100% | survival rates (survivors/total in brackets), Table 13 (CPA-CLP mice; 1 day after dosing): 100 (9/9) | Survival rate (CPA-CLP mice; 2 days after CLP): 44.44% | survival rates (survivors/total in brackets), Table 13 (CPA-CLP mice; 2 days after dosing): 44 (4/9) | Survival rate (CPA-CLP mice; 3 days after CLP): 33.33% | survival rates (survivors/total in brackets), Table 13 (CPA-CLP mice; 3 days after dosing): 33 (3/9) | Survival rate (CPA-CLP mice; 4 days after CLP): 0% | survival rates (survivors/total in brackets), Table 13 (CPA-CLP mice; 4 days after dosing): 0 (0/9) | Survival rate (CPA-CLP mice; 5 days after CLP): 0% | Survival rate (CPA-CLP mice; At CLP): 100% | survival rates (survivors/total in brackets), Table 13 (CPA-CLP mice; Dosing Day 0): 100 (9/9) | Survival rate (CPA-CLP mice; Total): 100% | Spleen weight, Relative ([3]; % of body weight at sacrifice): 0.117 ± 0.023 % | Thymus weight, Relative ([3]; % of body weight at sacrifice): 0.082 ± 0.018 % | absolute splenic weights, change compared to CPA control [3]: −7.08% | absolute thymic weights, change compared to CPA control [3]: −2.73% | relative splenic weights, change compared to CPA control [3]: −7.46% | relative thymic weights, change compared to CPA control [3]: −3.12% | Spleen weight, Absolute ([3]; at sacrifice): 0.045 ± 0.009 g | Thymus weight, Absolute ([3]; at sacrifice): 0.032 ± 0.008 g | blood total WBC numbers, change compared to CPA control (blood WBC): −11.31% | ratio of lymphocytes, change compared to CPA control (blood WBC): −23.56% | ratio of monocytes, change compared to CPA control (blood WBC): 13.43% | ratio of neutrophils, change compared to CPA control (blood WBC): −1.09% | Total WBC (blood WBC; blood at sacrifice): 0.41 ± 0.19 ×10^3/mm^3 | WBC differentials: Basophils (blood WBC; blood at sacrifice): 0.89 ± 0.78% | WBC differentials: Eosinophils (blood WBC; blood at sacrifice): 0.22 ± 0.44% | WBC differentials: Lymphocytes (blood WBC; blood at sacrifice): 14.56 ± 9.75 % | WBC differentials: Monocytes (blood WBC; blood at sacrifice): 42.78 ± 17.33 % | WBC differentials: Neutrophils (blood WBC; blood at sacrifice): 41.56 ± 10.64 % | Spleen: Number of white pulps [4]: 6.11 ± 1.45 N/histological sections | Thymus: Incidences of thymic cortex atrophy (atrophic changes/total observed number of thymus) [4]: 9/9 (100%) | incidences of decrease of lymphoid cells in the thymic cortex [4]: 100% | numbers of white pulps of spleen, change compared to CPA control [4]: −1.79% | Body weight ([5]; 1 day after CLP): 31.50 ± 1.34 g | Body weight ([5]; 2 days after CLP): 29.88 ± 0.98 g | Body weight ([5]; 3 days after CLP): 30.97 ± 0.99 g | Body weight ([5]; At CLP (overnight fasted)): 33.77 ± 1.42 g | Body weight [5, 35]: 34.32 ± 1.32 g | Body weight ([6]; 1 day after second CPA-dosing): 37.46 ± 1.96 g | Body weight ([6]; 2 days after second CPA-dosing): 38.61 ± 1.95 g | Body weight ([6]; At Dosing (overnight fasted)): 33.02 ± 1.95 g | Body weight [6, 35]: 36.84 ± 1.83 g | Body weight gains during 2 days after dosing [6]: 5.59 ± 1.03 g | body weight (gains) change compared to the CPA control group [6]: −1.37%
